# Assay results taken from patent publication US6492515B2, “4,4-disubstituted-1, 4-dihydro-2H-3, 1-benzoxazin-2-ones useful as HIV reverse transcriptase inhibitors and intermediates and processes for making the same” (Bristol-Myers Squibb Pharma Company, priority 1996, dated 2002).
# What was measured:
# [1] = biological target: HIV-1 reverse transcriptase (Human immunodeficiency virus type 1 group M subtype B, UniProt P04585); assay: Inhibition of HIV reverse transcriptase (statement in background); type: biochemical; settings: metabolite of NNRTI from rat, monkey and human microsomes
Compound,melting point,inhibitor of HIV reverse transcriptase [1]
"Cc1ccc2c(c1)C(C#CC1CC1)(C(C)C)OC(=O)N2 (racemic) [Example 5, (+/−)-4-Cyclopropylethynyl-4-isopropyl-6-methyl-1,4-dihydro-2H-3,1-benzoxazin-2-one]",138 to 138.5 °C,–
"CC(=O)c1ccc2c(c1)C(C#CC1CC1)(C(F)(F)F)OC(=O)N2 (racemic) [Example 7, (+/−)-6-Acetyl-4-cyclopropylethynyl-4-trifluoromethyl-1,4-dihydro-2H-3,1-benzoxazin-2-one]",197 to 200 °C,–
"O=C1Nc2c(F)cc(Cl)cc2C(C#CC2CC2)(C(F)(F)F)O1 (racemic) [Example 4, (+/−)-6-Chloro-4-(cyclopropylethynyl)-8-fluoro-4-(trifluoromethyl)-1,4-dihydro-2H-3,1-benzoxazin-2-one]",169 to 171 °C,–
O=C1Nc2ccc(Cl)cc2[C@@](C#Cc2ccccn2)(C(F)(F)F)O1 [Example 23],185.8 °C,–
"O=C1Nc2c(O)cc(Cl)cc2[C@@](C#CC2CC2)(C(F)(F)F)O1 [Example 2, (−)-6-Chloro-4-(cyclopropylethynyl)-8-hydroxy-4-(trifluoromethyl)-1,4-dihydro-2H-3,1-benzoxazin-2-one]",–,potent inhibitor
